Where two headings read alike, the source gives them in different places.
Target: human SSTR2 (Homo sapiens (Human), UniProt P30874)
Test: Human SSTR2 intracellular cAMP functional assay for agonists (HTRF)
Format: cell-based
Description: Functional Assay for SSTR2 Agonists
General overview: All five SSTR subtypes are Gi coupled G-protein coupled receptors (GPCRs) that lead to decreases in intracellular cyclic AMP (cAMP) when activated by an agonist. […] Human SSTR2 intracellular cAMP assay is described below. The human SSTR1, 3, 4 and 5 assays follow the same protocol of SSTR2.
The cells are cultured at 37° C., 5% CO2 and 95% humidity. […] The cells are incubated for 20 minutes at 37° C. […] The cells are treated with 50 μL of lysis buffer (HRTF cAMP kit, Cisbio). […] The time-resolved fluorescent signal is read with a Tecan M1000Pro multiplate reader. The intracellular cAMP concentrations are calculated by regression to a standard curve and are plotted vs. the concentration of the compounds of the invention and the EC50 of the compounds are calculated using standard methods. All data manipulations are in GraphPad Prism v6.

[1] = CHO-K1 cells stably expressing human SSTR2, NKH477-stimulated cAMP, read-out: EC50 (inhibition of cAMP activities via human SST2R)

human SSTR2, sequence (P30874 whole entry): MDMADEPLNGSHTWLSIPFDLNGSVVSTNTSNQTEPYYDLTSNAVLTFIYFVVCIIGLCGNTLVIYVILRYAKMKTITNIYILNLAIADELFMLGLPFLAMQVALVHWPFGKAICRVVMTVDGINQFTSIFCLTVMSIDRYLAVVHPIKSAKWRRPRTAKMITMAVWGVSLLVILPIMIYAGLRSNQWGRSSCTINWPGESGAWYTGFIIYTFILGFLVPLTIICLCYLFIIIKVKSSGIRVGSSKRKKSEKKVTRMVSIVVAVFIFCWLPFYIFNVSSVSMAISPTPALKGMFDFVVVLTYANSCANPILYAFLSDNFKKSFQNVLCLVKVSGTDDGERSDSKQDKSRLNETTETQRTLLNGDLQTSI

Molecule | EC50 [1] [nM] | EC50 [nM]
3-[4-(4-aminopiperidin-1-yl)-7-chloro-3-(3,5-dichlorophenyl)cinnolin-6-yl]-5-fluoro-2-hydroxybenzonitrile [1-27] | < 10 | 
Oc1c(F)cccc1-c1ccc2ncc(-c3cc(F)cc(F)c3)c(N3CC[C@H]4NCCO[C@@H]4C3)c2c1 (racemic) [2-144, trans-2-[3-(3,5-difluorophenyl)-4-{octahydro-1H-pyrido[3,4-b]morpholin-6-yl}quinolin-6-yl]-6-fluorophenol] | < 10 | 
COCCOc1c(C#N)cccc1-c1ccc2ncc(-c3cc(C)cc(F)c3)c(N3CC[C@@H](N)[C@@H](O)C3)c2c1 (racemic) [2-224, 3-{4-[cis-4-amino-3-hydroxypiperidin-1-yl]-3-(3-fluoro-5-methylphenyl)quinolin-6-yl}-2-(2-methoxyethoxy)benzonitrile] | < 10 | 
Cc1cc(F)cc(-c2cnc3ccc(-c4cccc(F)c4/C=N/O)cc3c2N2CC[C@@H](N)[C@@H](O)C2)c1 (racemic) [2-227, cis-4-amino-1-(6-{3-fluoro-2-[(hydroxyimino)methyl]phenyl}-3-(3-fluoro-5-methylphenyl)quinolin-4-yl)piperidin-3-ol] | < 10 | 
CO/N=C/c1cccc(-c2ccc3ncc(-c4cc(F)cc(F)c4)c(N4CC[C@H]5NCCO[C@@H]5C4)c3c2)c1O (racemic) [2-243, 2-{4-[trans-octahydro-1H-pyrido[3,4-b]morpholin-6-yl]-3-(3,5-difluorophenyl)quinolin-6-yl}-6-(methoxyiminomethyl)phenol] | < 10 | 
Cc1cc(F)cc(-c2nnc3cc(Cl)c(-c4cc(F)cc(C(N)=O)c4)cc3c2N2CC[C@@H](N)[C@H](F)C2)c1 (relative stereo) [1-5, 3-{4-[trans-4-amino-3-fluoropiperidin-1-yl]-7-chloro-3-(3-fluoro-5-methylphenyl)cinnolin-6-yl}-5-fluorobenzamide] | < 10 | 
Cc1cc(F)cc(-c2nnc3cc(Cl)c(-c4cc(F)cc(C(N)=O)c4)cc3c2N2CC[C@H](N)[C@H](F)C2)c1 (relative stereo) [1-6, 3-{4-[cis-4-amino-3-fluoropiperidin-1-yl]-7-chloro-3-(3-fluoro-5-methylphenyl)cinnolin-6-yl}-5-fluorobenzamide] | < 10 | 
CO[C@@H]1CN(c2c(-c3cc(C)cc(F)c3)nnc3cc(Cl)c(-c4cc(F)cc(C(N)=O)c4)cc23)CC[C@H]1N (relative stereo) [1-10, 3-{4-[trans-4-amino-3-methoxypiperidin-1-yl]-7-chloro-3-(3-fluoro-5-methylphenyl)cinnolin-6-yl}-5-fluorobenzamide] | < 10 | 
CO[C@@H]1CN(c2c(-c3cc(F)cc(F)c3)cnc3ccc(-c4cccc(C#N)c4O)cc23)CC[C@H]1N (relative stereo) [2-3, 3-{4-[trans-4-amino-3-methoxypiperidin-1-yl]-3-(3,5-difluorophenyl)quinolin-6-yl}-2-hydroxybenzonitrile] |  | < 10
CO[C@@H]1CN(c2c(-c3cc(F)cc(F)c3)cnc3ccc(-c4cccc(C#N)c4)cc23)CC[C@H]1N (relative stereo) [2-4, 3-{4-[trans-4-amino-3-methoxypiperidin-1-yl]-3-(3,5-difluorophenyl)quinolin-6-yl}benzonitrile] | < 10 | 
N#Cc1cccc(-c2ccc3ncc(-c4cc(F)cc(F)c4)c(N4CC[C@H]5NCCO[C@@H]5C4)c3c2)c1O (relative stereo) [2-19, 3-{4-[trans-octahydro-1H-pyrido[3,4-b]morpholin-6-yl]-3-(3,5-difluorophenyl)quinolin-6-yl}-2-hydroxybenzonitrile] | < 10 | 
Cc1cc(F)cc(-c2cnc3ccc(-c4cccc(C#N)c4O)cc3c2N2CC[C@H]3NCCO[C@@H]3C2)c1 (relative stereo) [2-20] | < 10 | 
COCOc1c(C#N)cccc1-c1ccc2ncc(-c3cc(F)cc(F)c3)c(N3CC[C@H](N)[C@H](O)C3)c2c1 (relative stereo) [2-58, 3-{4-[cis-4-amino-3-hydroxypiperidin-1-yl]-3-(3,5-difluorophenyl)quinolin-6-yl}-2-(methoxymethoxy)benzonitrile] | < 10 | 
N#Cc1cccc(-c2ccc3ncc(-c4cc(F)cc(F)c4)c(N4CC[C@@H](N)[C@@H](O)C4)c3c2)c1O (relative stereo) [2-60, cis-3-{4-[4-amino-3-hydroxypiperidin-1-yl]-3-(3,5-difluorophenyl)quinolin-6-yl}-2-hydroxybenzonitrile] |  | < 10
N#Cc1cc(F)cc(-c2ccc3ncc(-c4cc(F)cc(F)c4)c(N4CC[C@H](N)[C@H](O)C4)c3c2)c1O (relative stereo) [2-63, 3-{4-[cis-4-amino-3-hydroxypiperidin-1-yl]-3-(3,5-difluorophenyl)quinolin-6-yl}-5-fluoro-2-hydroxybenzonitrile] | < 10 | 
N#Cc1cccc(-c2ccc3ncc(-c4cc(F)cc(F)c4)c(N4CC[C@@H](N)[C@H](C#N)C4)c3c2)c1O (relative stereo) [2-92, trans-4-amino-1-[6-(3-cyano-2-hydroxyphenyl)-3-(3,5-difluorophenyl)quinolin-4-yl]piperidine-3-carbonitrile] | 100 to 1000 | 
N#Cc1cccc(-c2ccc3ncc(-c4cc(F)cc(F)c4)c(N4CC[C@H](N)[C@H](C#N)C4)c3c2)c1O (relative stereo) [2-94, cis-4-amino-1-[6-(3-cyano-2-hydroxyphenyl)-3-(3,5-difluorophenyl)quinolin-4-yl]piperidine-3-carbonitrile] | 10 to 100 | 
N#Cc1cc(F)c(F)c(-c2ccc3ncc(-c4cc(F)cc(F)c4)c(N4CC[C@H]5NCCO[C@@H]5C4)c3c2)c1O (relative stereo) [2-100, 3-{4-[trans-octahydro-1H-pyrido[3,4-b]morpholin-6-yl]-3-(3,5-difluorophenyl)quinolin-6-yl}-4,5-difluoro-2-hydroxybenzonitrile] | 10 to 100 | 
COC(=O)[C@@H]1CN(c2c(-c3cc(F)cc(F)c3)cnc3ccc(-c4cccc(C#N)c4O)cc23)CC[C@H]1N (relative stereo) [2-143, methyl trans-4-amino-1-[6-(3-cyano-2-hydroxyphenyl)-3-(3,5-difluorophenyl)quinolin-4-yl]piperidine-3-carboxylate] | < 10 | 
N#Cc1cccc(-c2ccc3ncc(-c4cc(F)cc(F)c4)c(N4CC[C@@H](N)[C@H](C(N)=O)C4)c3c2)c1O (relative stereo) [2-146, trans-4-Amino-1-[6-(3-cyano-2-hydroxyphenyl)-3-(3,5-difluorophenyl)quinolin-4-yl]piperidine-3-carboxamide] | > 1000 | 
CNC(=O)[C@@H]1CN(c2c(-c3cc(F)cc(F)c3)cnc3ccc(-c4cccc(C#N)c4O)cc23)CC[C@H]1N (relative stereo) [2-149, trans-4-Amino-1-[6-(3-cyano-2-hydroxyphenyl)-3-(3,5-difluorophenyl)quinolin-4-yl]-N-methylpiperidine-3-carboxamide] |  | 100 to 1000
CN(C)C(=O)[C@@H]1CN(c2c(-c3cc(F)cc(F)c3)cnc3ccc(-c4cccc(C#N)c4O)cc23)CC[C@H]1N (relative stereo) [2-151, trans-4-amino-1-[6-(3-cyano-2-hydroxyphenyl)-3-(3,5-difluorophenyl)quinolin-4-yl]-N,N-dimethylpiperidine-3-carboxamide] | 100 to 1000 | 
COC(=O)[C@@H]1CN(c2c(-c3cc(F)cc(F)c3)cnc3ccc(-c4cccc(C#N)c4O)cc23)CC[C@H]1N (relative stereo) [2-170, methyl (trans)-4-amino-1-[6-(3-cyano-2-hydroxyphenyl)-3-(3,5-difluorophenyl)quinolin-4-yl]piperidine-3-carboxylate] |  | 100 to 1000
Cc1cc(F)cc(-c2cnc3ccc(-c4cc(F)cc(C#N)c4O)cc3c2N2CC[C@H](N)[C@H](O)C2)c1 (relative stereo) [2-219, cis-3-{4-[4-amino-3-hydroxypiperidin-1-yl]-3-(3-fluoro-5-methylphenyl)quinolin-6-yl}-5-fluoro-2-hydroxybenzonitrile] | < 10 | 
COCCOc1c(C#N)cc(F)cc1-c1ccc2ncc(-c3cc(C)cc(F)c3)c(N3CC[C@H](N)[C@H](O)C3)c2c1 (relative stereo) [2-220, cis-3-{4-[4-amino-3-hydroxypiperidin-1-yl]-3-(3-fluoro-5-methylphenyl)quinolin-6-yl}-5-fluoro-2-(2-methoxyethoxy)benzonitrile] | < 10 | 
CON=Cc1cccc(-c2ccc3ncc(-c4cc(C)cc(F)c4)c(N4CC[C@H]5NCCO[C@@H]5C4)c3c2)c1O (relative stereo) [2-221, 2-{4-[trans-octahydro-1H-pyrido[3,4-b]morpholin-6-yl]-3-(3-fluoro-5-methylphenyl)quinolin-6-yl}-6-[(methoxyimino)methyl]phenol] | < 10 | 
COCCOc1c(C#N)cccc1-c1ccc2ncc(-c3cc(F)cc(F)c3)c(N3CC[C@H](N)[C@H](O)C3)c2c1 (relative stereo) [2-225, cis-3-{4-[4-amino-3-hydroxypiperidin-1-yl]-3-(3,5-difluorophenyl)quinolin-6-yl}-2-(2-methoxyethoxy)benzonitrile] | < 10 | 
COCCOc1c(C#N)cc(F)cc1-c1ccc2ncc(-c3cc(F)cc(F)c3)c(N3CC[C@H](N)[C@H](O)C3)c2c1 (relative stereo) [2-232, cis-3-{4-[4-amino-3-hydroxypiperidin-1-yl]-3-(3,5-difluorophenyl)quinolin-6-yl}-5-fluoro-2-(2-methoxyethoxy)benzonitrile] | < 10 | 

Reference: patent US10351547B2, “Somatostatin modulators and uses thereof” (priority 2016, dated 2019)
